Test results reported in patent publication US9314046B2, “Flavor-improving method” (TAKASAGO INTERNATIONAL CORPORATION, priority 2011, dated 2016).

Experiment: Evaluation of flavor-improving effects by addition of γ-aminobutyric acid and naringenin (sensory, 3 evaluators)
Type: in vivo
Parameters: key to Evaluation (grade): VP (very poor): worse than base; P (poor): difference from base not acknowledged, insufficient effects; G (good): different from base, favorable flavor; E (excellent): significantly different from base, very favorable flavor
Description: (1) Evaluation of Flavor-Improving Effects by Addition of γ-Aminobutyric Acid and Naringenin
To a base of a 0.05% aqueous solution of Rebaudio J-100, γ-aminobutyric acid (product name: 4-amino-n-butyric acid, produced by Nacalai Tesque, Inc.) and naringenin (product name: Naringenin, produced by LKT Laboratories, Inc.) were individually added in the amounts as described in the following table, and the flavor-improving effects thereof were evaluated.

[1] = naringenin alone 0.0010 ppb in base
[2] = naringenin alone 0.0100 ppb in base
[3] = naringenin alone 460.0000 ppb in base

NCCCC(=O)O [GABA, γ-aminobutyric acid]
Evaluation (comment in words) (GABA alone 0.0100 ppb in base): Not different from base | Evaluation (grade) (GABA alone 0.0100 ppb in base): P | Evaluation (comment in words) (GABA alone 0.1000 ppb in base): Not different from base | Evaluation (grade) (GABA alone 0.1000 ppb in base): P | Evaluation (comment in words) (GABA alone 1.0000 ppb in base): Reduced total taste | Evaluation (grade) (GABA alone 1.0000 ppb in base): P | Evaluation (grade) (GABA alone 10.0000 ppb in base): P | Evaluation (grade) (GABA alone 100.0000 ppb in base): P | Evaluation (grade) (GABA alone 500.0000 ppb in base): P | Evaluation (grade) (GABA alone 1000.0000 ppb in base): VP | Evaluation (grade) (GABA alone 10000.0000 ppb in base): VP

O=C1C[C@@H](c2ccc(O)cc2)Oc2cc(O)cc(O)c21 [naringenin]
Evaluation (comment in words) [1]: Not different from base | Evaluation (grade) [1]: P | Evaluation (comment in words) [2]: Not different from base | Evaluation (grade) [2]: P | Evaluation (grade) (naringenin alone 0.1000 ppb in base): P | Evaluation (grade) (naringenin alone 1.0000 ppb in base): P | Evaluation (grade) (naringenin alone 10.0000 ppb in base): P | Evaluation (comment in words) [3]: Bitterness left in mouth | Evaluation (grade) [3]: P | Evaluation (grade) (naringenin alone 1000.0000 ppb in base): P | Evaluation (grade) (naringenin alone 10000.0000 ppb in base): P
